# Measured values published in PMC6238273, “First in vivo evaluation of a potential SPECT brain radiotracer for the gonadotropin releasing hormone receptor” (BMC Research Notes, 2018).
# Entries after “also recorded” stand apart in the source; their conditions may differ.
# Assays:
# [1] = Stability in rat serum by LC-MS; format: in vitro ADME; conditions: for % of compound remaining, rat serum: 37 °C
# Experimental: (§1) The stability of Compound-1 was initially investigated in saline. Compound-1 was dissolved in ethanol:Polysorbate 80:water (5:5:90) then incubated with 300 µl 0.9% NaCl at ambient temperature to give a final concentration of 6.5 mM (millimolar). Aliquots were taken at 0, 60, 120 and 1560 min, then analysed by LC–MS. Furthermore, Compound-1 was investigated in human and rat serum. Compound-1 in ethanol:Polysorbate 80:water (5:5:90) was incubated with 400 µl human and 300 µl rat serum at 37 °C to give a final concentration of 5 mM and 6.5 mM. Aliquots (40–50 µl) from previous mixtures was extracted with ice-cold acetonitrile at 0, 10, 30, 60, 120, 240 and 1320 min post-incubation. Samples were centrifuged at 13,000g for 5 min. The supernatants were analysed by LC–MS. Serum experiments were performed in triplicate. Additionally, [^123I]-Compound-1 was evaluated for in vivo stability by analyzing blood samples after 1 h post injection. The blood samples were centrifuged and the supernatant was injected on the radio-HPLC.
# [2] = Stability in saline (0.9% NaCl) by LC-MS; format: physicochemical; conditions: ambient temperature, n = 1
# Experimental: as §1, with “Aliquots were taken at 0, 60, 120 and 1560 min, then analysed by LC–MS.” left out
# [3] = Rat brain SPECT imaging; format: in vivo
# Experimental: Compound-1 SPECT brain imaging and biodistribution were examined post injection in rats. All animal procedures were performed under isoflurane anesthesia (Induction 4%, Maintenance 2% in oxygen). One group of rats was injected intravenous (iv.) with [^123I]-Compound-1 (1.67 MBq ± 0.28, n = 3). A second group was injected intraperitoneal (ip.) (4.12 MBq ± 0.56, n = 3). A third group of animals was injected iv. with Na^123I (1.53 MBq ± 0.37 SD, n = 3). Biodistribution of these compounds was studied after the SPECT imaging sessions 1 h post-injection (in the iv. groups) and 2 and 5 h post-administration in the ip. group. Rats were positioned with the brain in the center of the field of view inside a 4 detector configuration Triumph™ II X-SPECT^Ⓡ small animal PET/SPECT/CT scanner (Trifoil Imaging, Northridge Tri-Modality Imaging, Inc., Chatsworth, CA). Heart rate and breathing was monitored with sensors inside a closed animal cell (Equipment Veterinaire Minerve, Esternay) and the temperature on the heated air flow inside the cell was set to 35 °C to prevent hypothermia. […] Images were analyzed using PMOD (PMOD Technologies Ltd., Zürich). […] In addition, an average SPECT image over all time frames was calculated for each animal.
# [4] = molecular target: T1, hGnRHR (Homo sapiens, UniProt P30968); experiment: Competitive binding for LHRH/GnRH by fluorescence based FLIPR-assay in HEK293T cells stably expressing GnRH receptors; format: cell-based; conditions: for Ki: 5 nM LHRH agonist, Ki by cheng-prusoff equation; for IC50: competition with 5 nM LHRH agonist, read-out: hGnRHR pIC50 (converted)
# T1 construct: host or cells: HEK293T
# T1 sequence (P30968 1-328): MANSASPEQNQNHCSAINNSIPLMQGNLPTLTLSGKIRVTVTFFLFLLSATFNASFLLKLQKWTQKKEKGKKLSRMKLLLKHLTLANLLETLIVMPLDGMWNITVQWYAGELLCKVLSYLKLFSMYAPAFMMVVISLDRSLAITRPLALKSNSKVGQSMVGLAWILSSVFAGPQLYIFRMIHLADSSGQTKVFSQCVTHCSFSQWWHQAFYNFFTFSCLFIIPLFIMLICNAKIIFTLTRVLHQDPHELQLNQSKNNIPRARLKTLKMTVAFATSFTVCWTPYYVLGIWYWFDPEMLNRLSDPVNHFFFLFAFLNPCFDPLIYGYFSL
# Experimental: HEK293T (division arrested cell-line, Multispan Inc. USA) cells stably expressing GnRH receptors were used to measure the competitive binding for LHRH/GnRH by a fluorescence based FLIPR-assay. Compound-1 was tested in concentrations from 50 µM to 0.5 nM with 5 nM LHRH agonist as competitor.
# The Ki was determined by using the cheng-prusoff equation [13].
# [5] = Stability in human serum by LC-MS; format: in vitro ADME; conditions: for % of compound remaining, human serum: 37 °C
# Experimental: as §1
# [6] = In vivo stability: radio-HPLC of blood samples 1 h post injection; conditions: rat blood samples 1 h post injection
# Experimental: as §1
# [7] = Biodistribution in rats (gamma counter, % ID/g); format: in vivo; conditions: rat
# Experimental: Compound-1 SPECT brain imaging and biodistribution were examined post injection in rats. All animal procedures were performed under isoflurane anesthesia (Induction 4%, Maintenance 2% in oxygen). One group of rats was injected intravenous (iv.) with [^123I]-Compound-1 (1.67 MBq ± 0.28, n = 3). A second group was injected intraperitoneal (ip.) (4.12 MBq ± 0.56, n = 3). A third group of animals was injected iv. with Na^123I (1.53 MBq ± 0.37 SD, n = 3). Biodistribution of these compounds was studied after the SPECT imaging sessions 1 h post-injection (in the iv. groups) and 2 and 5 h post-administration in the ip. group. Rats were positioned with the brain in the center of the field of view inside a 4 detector configuration Triumph™ II X-SPECT^Ⓡ small animal PET/SPECT/CT scanner (Trifoil Imaging, Northridge Tri-Modality Imaging, Inc., Chatsworth, CA). Heart rate and breathing was monitored with sensors inside a closed animal cell (Equipment Veterinaire Minerve, Esternay) and the temperature on the heated air flow inside the cell was set to 35 °C to prevent hypothermia. Dynamic SPECT acquisitions for 30 and 60 min with 6–12 image frames (5 min duration) were obtained for the animals which were used for 1–2 h biodistribution studies respectively. The animals subjected to the 5 h biodistribution study were scanned after an average of 4 h and 20 min, a static SPECT of 30 min was acquired. 1.0 mm 5-multipinhole collimator (N5F65A10) and 50 mm radius of rotation (ROR). Images were reconstructed using a 20% energy window and Ordered Subset Expectation Maximization (OSEM) algorithm with 5 iterations and 8 subsets. Computed tomography (CT) was performed using 80 kVp, 2 × 2 binning, 512 projections and 1.3× magnification, immediately after SPECT imaging. The raw data were reconstructed using Filtered Back Projection. Images were analyzed using PMOD (PMOD Technologies Ltd., Zürich). Volumes of interests (VOI) representing the brain-tissue, non-brain-tissue and background regions were delineated based on the anatomical CT images, and transferred to the co-registered dynamic SPECT data. In addition, an average SPECT image over all time frames was calculated for each animal.
# Animals were euthanized with an overdose of pentobarbital (ip. […]) and organs were collected, weighed and analysed for radioactivity measurements on an automatic gamma counter (Wizard^2 2480, Perkin Elmer, USA). Organ distribution was expressed as percentage of injected dose per gram for the organs selected (% ID/g).
# [8] = 120 min, mean ± SD n = 3, listed as compound 1
compound,measurement,setting,value
CC(C)(C)c1ccc(-c2nc3c(N4CCN(C(=O)CI)CC4)cccc3[nH]2)cc1 [Compound-1],"% of compound remaining, rat serum","[1]; 0 min, 6.5 mM",100%
same,"% of compound remaining, rat serum","[1]; 10 min, mean ± SD n = 3",86±7.3%
same,"% of compound remaining, rat serum","[1]; 30 min, mean ± SD n = 3",82±11.5%
same,"% of compound remaining, rat serum","[1]; 60 min, mean ± SD n = 3",44±5.5%
same,"% of compound remaining, rat serum","[1]; 120 min, mean ± SD n = 3",approximately 30%
same,"% of compound remaining, rat serum",[1]; [8],30±4.8%
same,"% of compound remaining, rat serum","[1]; 240 min, mean ± SD n = 3",8±1.6%
same,"% of compound remaining, rat serum",[1]; 1320 min,0%
same,decrease of compound in rat serum,"[1]; after 1 h, LC-MS",50%
same,"% of compound remaining, saline","[2]; 0 min, 6.5 mM",100%
same,"% of compound remaining, saline",[2]; 60 min,46%
same,"% of compound remaining, saline",[2]; 120 min,10%
same,"% of compound remaining, saline",[2]; 1440 min (24 h),2%
same,"% of compound remaining, saline","[2]; 1440 min (24 h), listed as compound 1",1.6%
same,brain uptake in SPECT images,[3]; iv. or ip. injection,no uptake; also recorded: did not show any uptake
same,Ki,[4],82 nM
same,IC50,[4],5130 nM
same,"% of compound remaining, human serum","[5]; 0 min, 5 mM",100%
same,"% of compound remaining, human serum","[5]; 10 min, mean ± SD n = 3",88±1.6%
same,"% of compound remaining, human serum","[5]; 30 min, mean ± SD n = 3",74±8.1%
same,"% of compound remaining, human serum","[5]; 60 min, mean ± SD n = 3",52±1.5%
same,"% of compound remaining, human serum","[5]; 120 min, mean ± SD n = 3",23%
same,"% of compound remaining, human serum",[5]; [8],23±1.6%
same,"% of compound remaining, human serum","[5]; 240 min, mean ± SD n = 3",3±0.3%
same,"% of compound remaining, human serum",[5]; 1320 min,0%
same,decrease of compound in human serum,"[5]; after 1 h, LC-MS",50%
"CC(C)(C)c1ccc(-c2nc3c(N4CCN(Cc5ccc6nccnc6c5)CC4)cccc3[nH]2)cc1 [WAY207024, 6-({4-[2-(4-tert-butylphenyl)-1H-benzimidazol-4-yl]piperazin-1-yl}methyl)quinoxaline, reference compound]",Ki,[4],12.2 nM
same,IC50,[4],631 nM
CC(C)(C)c1ccc(-c2nc3c(N4CCN(C(=O)C[123I])CC4)cccc3[nH]2)cc1 [[^123I]-Compound-1],detection of intact radiotracer in blood by radio-HPLC,[6],did not detect
same,"SPECT VOI comparison (brain, non-brain region, background region)",[3]; semi-quantitative SPECT analysis,no significant differences
same,"organ distribution, brain",[7]; 1 h post iv. injection,0.03 % ID/g
same,"organ distribution, stomach",[7]; 1 h post iv. injection,3.6 % ID/g
same,"organ distribution, testis",[7]; 1 h post iv. injection,0.2 % ID/g
same,"organ distribution, thyroid",[7]; 1 h post iv. injection,1.2 % ID/g
same,"organ distribution, stomach",[7]; 2 h post ip. administration,2.5 % ID/g
same,"organ distribution, thyroid",[7]; 2 h post ip. administration,5.8 % ID/g
same,"organ distribution, stomach",[7]; 5 h post ip. administration,2 % ID/g
same,"organ distribution, thyroid",[7]; 5 h post ip. administration,13.1 % ID/g
